Series [1] deals with FAP. On the set-up: method as in PMID 33850024. To be noted: read-out: dissociation constant; cited from earlier work.
Series [2] deals with hCAIX (Homo sapiens, UniProt Q16790). Description: Co-elution experiment with hCAIX (non-target protein) on PD-10 columns. It is filed as binding. As to conditions: PD-10 column. Here is the method: NODAGA-OncoFAP labeling with 177Lu and characterization
Figure S1. (A) Radiolabeling reaction scheme of OncoFAP-NODAGA with 177Lu in acetate buffer (pH=4) at 95°C for 15 min. (B) Coelution experiment of [177Lu]Lu-NODAGA-OncoFAP-with hFAP and hCAIX on PD-10 size exclusion chromatography columns. (C) Radio-HPLC analysis performed after labeling reaction.
NODAGA-OncoFAP can be efficiently labeled with 177Lu by heating at 95°C in acetate buffer (pH=4) for 15 min. [Figure S1A] […]
been observed. [Figure S1C] […]

The target of series [3] is T1, recombinant hFAP (Homo sapiens, UniProt Q12884).
T1 sequence (Q12884 1-760): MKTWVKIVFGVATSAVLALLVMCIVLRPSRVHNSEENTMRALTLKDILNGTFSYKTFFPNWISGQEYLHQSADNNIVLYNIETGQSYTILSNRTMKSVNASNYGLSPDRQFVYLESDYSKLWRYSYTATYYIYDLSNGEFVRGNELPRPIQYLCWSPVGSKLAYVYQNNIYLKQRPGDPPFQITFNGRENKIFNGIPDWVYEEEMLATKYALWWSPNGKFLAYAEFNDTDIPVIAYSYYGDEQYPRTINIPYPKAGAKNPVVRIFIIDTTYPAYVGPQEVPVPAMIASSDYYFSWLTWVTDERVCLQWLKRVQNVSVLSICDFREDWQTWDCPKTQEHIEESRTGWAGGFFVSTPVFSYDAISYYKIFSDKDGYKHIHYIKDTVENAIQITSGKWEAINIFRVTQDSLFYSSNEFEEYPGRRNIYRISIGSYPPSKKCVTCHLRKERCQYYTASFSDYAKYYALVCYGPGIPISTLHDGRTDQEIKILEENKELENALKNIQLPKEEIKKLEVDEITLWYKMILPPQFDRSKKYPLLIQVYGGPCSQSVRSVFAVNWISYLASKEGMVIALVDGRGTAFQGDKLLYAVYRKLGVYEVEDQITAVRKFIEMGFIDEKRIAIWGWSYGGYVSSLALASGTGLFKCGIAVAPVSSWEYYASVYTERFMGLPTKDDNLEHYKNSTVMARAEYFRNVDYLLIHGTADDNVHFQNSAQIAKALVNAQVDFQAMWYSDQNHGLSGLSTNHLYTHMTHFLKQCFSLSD
Description: Co-elution experiment with recombinant hFAP on PD-10 size exclusion columns. It is filed as binding. To be noted: 500 kBq radioligand, hFAP 2 μM 100 μL, PD-10 column. On the procedure: To assess the binding properties of radiolabeled OncoFAP-derivatives preparations to hFAP, [^68Ga]/[^18F]AlF/[^177Lu]-OncoFAP derivatives (500 kBq) were incubated with hFAP (2 μM, 100 μL) and then loaded on PD-10 columns, pre-equilibrated with running buffer (50 mM Tris, 100 mM NaCl, and 1 mM ethylenediaminetetraacetic acid [EDTA], pH = 7.4) and eluted with running buffer. Fractions of the flow through (500 μL) were collected, and the radioactivity intensity was measured immediately on a gamma counter (λ = 511 KeV for gallium-68 and fluorine-18 and λ = 208 KeV for lutetium-177).
Background: Size exclusion chromatography separates by hydrodynamic size, large species first.

Series [4] in a line: Lipophilicity by shake-flask method (n-octanol/saline or PBS). To be noted: room temperature; for LogD7.4: n-octanol/PBS; for LogP: n-octanol/saline solution. It is filed as physicochemical. Here is the method: Lipophilicity was determined by partitioning between n-octanol and saline solution (LogP) or PBS (LogD7.4) at room temperature using the conventional shake-flask method. An aliquot of the formulated solution containing ~500 kBq of radiopharmaceuticals was added to a tube containing 6 mL of n-octanol/saline solution or n-octanol/PBS (1:1 v/v, LogP or LogD7.4, respectively). The tubes were shaken for 20 min, followed by centrifugation (5000× g for 5 min) and separation of the phases. Aliquots of 1 mL of the organic and the aqueous phases were taken, and the activity was measured using an automated gamma counter. The LogP or LogD7.4 were calculated as the decadic logarithm of [activity (cpm/mL) in n-octanol]/[(activity (cpm/mL) in saline solution or PBS].

In series [5] the test system is HT-1080.hFAP tumors. Description: In vivo biodistribution in mice bearing subcutaneous HT-1080.hFAP tumors. On the procedure:
Tumor cells were grown to 80% confluence in Dulbecco’s Modified Eagle Medium (DMEM) supplemented with 10% Fetal Bovine Serum (Thermofisher, Waltham, MA, USA) and 1% antibiotic-antimycotic (Gibco) and detached with Trypsin-EDTA 0.05%. HT-1080.hFAP, cells (FAP positive cells) were resuspended in Hanks’ Balanced Salt Solution medium. Aliquots of 5 × 10^6 cells (100 μL of suspension) were injected subcutaneously in the right flanks of female athymic Balb/c AnNRj-Foxn1 mice (6 to 8 weeks of age, Janvier-labs, Le Genest-Saint-Isle, France). Female athymic Balb/c AnNRj-Foxn1 mice (6 to 8 weeks of age) were implanted in the right flank with HT-1080.hFAP tumors as described above. Tumors were allowed to grow to an average volume of 250 mm^3. Mice were randomized (n = 5 per group) and injected intravenously with radiolabeled preparations of [^18F]AlF-NOTA-OncoFAP (10 nmol/mice; 77 kBq; RCP:89%). Mice were euthanized 1 h after the injection by CO2 asphyxiation. Organs were extracted, weighted, and radioactivity was measured with a Packard Cobra Gamma Counter. Values are expressed as percent ID/g ± SD.

Series [6] has as its system SK-RC-52.hFAP cells. Briefly: Cell binding assay on FAP-positive SK-RC-52.hFAP cells. It is filed as cell-based. As to conditions: 0.1 MBq, 37 °C, 1.5 × 10^5 cells each tube. On the procedure:
Cell binding assays were performed in triplicate on SK-RC-52.hFAP and SK-R-RC-52.wt cells (density of 1.5 × 10^5 cells each tube), growth in RPMI-1640 medium (Gibco) containing 10% Fetal Bovine Serum (Gibco) and 1% Antibiotic-Antimycotic (Gibco) at 37 °C in 5% carbon dioxide (CO2). After adding [^68Ga]Ga-DOTAGA-OncoFAP, [^177Lu]Lu-DOTAGA-OncoFAP or [^18F]AlF-NOTA-OncoFAP (10 µL, 0.1 MBq) to the culture medium, the cells were incubated at 37 °C for 10, 30, 60 min for ^68Ga-derivatives and 10, 30, 60, 120, 240 min for ^18F-derivatives or 10, 30, 60, 120, 240, 360 min and 24 and 48 h for the ^177Lu-derivative. As a control, nonspecific binding determination was carried out by incubating with the OncoFAP derivatives complex with the non-radioactive isotopes reference standard (100 µM) with the same cell lines for 5 min before incubation with the radiolabeled compounds. After incubation, the cell pellets were washed twice with 1 mL of cold PBS (pH 7.4), centrifuged (400× g, 5 min) and the pellet measured by an automatic gamma counter (WIZARD2, PerkinElmer, Waltham, MA, USA).

Series [7] has as its system FAP-expressing tumor models. On the set-up: method as in PMID 34957527. As to conditions: cited from earlier work.
Series [8] deals with FAP-positive tumor. Details: method as in PMID 35589404. As to conditions: cited from earlier work.
A short description of series [9]: In vitro stability in saline solution (bulk solution), HPLC/iTLC. It is filed as physicochemical. On the procedure:
The in vitro stability of the radiopharmaceuticals preparations in saline solution was evaluated on the bulk solution i.e., with the highest radioactive concentration. In addition, the in vitro stability of radiopharmaceutical preparations was tested by incubating 10 MBq of each radiolabeled compounds in 1 mL of human plasma at 37 °C. Small aliquots of bulk solution were analyzed by HPLC and iTLC and 10 µL of plasma solution were analyzed by iTLC at 30, 60, 90, 120, 150 and 180 min for [^68Ga]Ga-DOTAGA/NODAGA-OncoFAP derivatives, 50, 100, 150 and 200-min for [^18F]AlF-NOTA/NODAGA-OncoFAP or 1, 3, 6, 12, 24, and 2, 3, 4, 7 and 9 days for [^177Lu]Lu-DOTAGA-OncoFAP, as show in Figure 3.

The mark [10] stands for this setting: 1-h time point, 500 nmol/kg i.v.

What is called LogP is the decadic logarithm of the partition coefficient of the neutral form, usually between octanol and water. Read a high LogP as a more lipophilic compound.

Read-outs that look alike come from different tables or passages of the source.

With `N#C[C@@H]1CC(F)(F)CN1C(=O)CNC(=O)c1ccnc2c(NC(=O)CCC(=O)O)cccc12` [OncoFAP], the Kd in series [1] was 0.68 nM.
As for `N#C[C@@H]1CC(F)(F)CN1C(=O)CNC(=O)c1ccnc2c(NC(=O)CCC(=O)NCCNC(=O)CCC(C(=O)[O-])N3CCN(CC(=O)[O-])CCN(CC(=O)[O-])CC3)cccc12.[177Lu+3]` (stereo partly shown) [[177Lu]Lu-NODAGA-OncoFAP], in [2], the “interaction with hCAIX (co-elution)” value is on record as “no significant interaction”. In series [3], the “complex formation with recombinant hFAP (co-elution)” value is given as “strong affinity”.
As for `N#C[C@@H]1CC(F)(F)CN1C(=O)CNC(=O)c1ccnc2c(NC(=O)CCC(=O)NCCNC(=O)CCC(C(=O)O)N3CCN(CC(=O)[O-])CCN(CC(=O)[O-])CC3)cccc12.[18F][Al+2]` (stereo partly shown) [[^18F]AlF-NODAGA-OncoFAP], in series [4], the LogD7.4 was -2.88±0.16 and the LogP is -3.02± 015.
For the molecule `N#C[C@@H]1CC(F)(F)CN1C(=O)CNC(=O)c1ccnc2c(NC(=O)CCC(=O)N3CCN(C(=O)CN4CCN(CC(=O)[O-])CCN(CC(=O)[O-])CC4)CC3)cccc12.[18F][Al+2]` [[^18F]AlF-NOTA-OncoFAP], in series [5] (setting [10]), the tumor-to-blood ratio was 6.5 and the tumor-to-kidney ratio amounted to 4.3. The same molecule displayed a tumor accumulation in series [5] (1 h post intravenous injection, 500 nmol/kg, HT-1080.hFAP) of 6.6 % ID/g. In [4], this molecule yielded a LogD7.4 of -2.01± 0.25 and a LogP of -2.15± 0.18. In addition, the absolute binding value in series [6] came to 0.25%.
`N#C[C@@H]1CC(F)(F)CN1C(=O)CNC(=O)c1ccnc2c(NC(=O)CCC(=O)NCCNC(=O)CCC(C(=O)O)N3CCN(CC(=O)[O-])CCN(CC(=O)[O-])CCN(CC(=O)[O-])CC3)cccc12.[68Ga+3]` (stereo partly shown) [[^68Ga]Ga-DOTAGA-OncoFAP]: in series [4], the LogD7.4 is recorded as -2.39 ± 0.12 and the LogP is listed as -2.57± 0.15. Moreover, the “complex formation with recombinant hFAP (co-elution)” value in series [3] is recorded as “forms a stable complex”. The tumor-to-blood ratio in series [7] (at 1 h p.i.) is reported as 8.6 ± 5.1. In addition, the tumor-to-blood ratio in series [7] (at 3 h p.i.) is on record as 38.1 ± 33.1.
Take `N#C[C@@H]1CC(F)(F)CN1C(=O)CNC(=O)c1ccnc2c(NC(=O)CCC(=O)NCCNC(=O)CCC(C(=O)[O-])N3CCN(CC(=O)[O-])CCN(CC(=O)[O-])CC3)cccc12.[68Ga+3]` (stereo partly shown) [[^68Ga]Ga-NODAGA-OncoFAP]: in [4], the LogD7.4 is reported as -2.48± 0.09 and the LogP is reported as -2.68± 0.14.
For `N#C[C@@H]1CC(F)(F)CN1C(=O)CNC(=O)c1ccnc2c(NC(=O)CCC(=O)N3CCN(C(=O)CN4CCN(CC(=O)[O-])CCN(CC(=O)[O-])CC4)CC3)cccc12.[68Ga+3]` [[^68Ga]Ga-NOTA-OncoFAP], in series [4], the LogD7.4 is listed as -2.19± 0.11 and the LogP was -2.38± 0.11.
Take `N#C[C@@H]1CC(F)(F)CN1C(=O)CNC(=O)c1ccnc2c(NC(=O)CCC(=O)NCCNC(=O)CCC(C(=O)O)N3CCN(CC(=O)[O-])CCN(CC(=O)[O-])CCN(CC(=O)[O-])CC3)cccc12.[177Lu+3]` (stereo partly shown) [[^177Lu]Lu-DOTAGA-OncoFAP]: the “uptake in the FAP-positive tumor” value in series [8] (10 min after injection) was 32 % injected dose [ID]/g. Further, the tumor uptake in [8] (at 24 h p.i.) was ~ 4 % ID/g. Also, the “sustained uptake in the lesions” value in series [8] (over the first 6 h time window) is listed as “higher than 20 % ID/g”. Also, the radiolysis result in series [9] (every 24 h, without gentisic acid) was “about 10%”. For the same molecule, the “stability at high radioactive concentrations” value in series [9] (in words, without stabilizer) is recorded as “intrinsic instability”. Also, in series [9] (within 8 days, with addition of 20 mg of gentisic acid as radical scavenger), the radiolysis result is “about 2%”. In series [4], this molecule registered a LogD7.4 of -1.85± 0.05 and a LogP of -2.01± 0.08.

Values taken from article PMC9416253, “Automated Radiosynthesis, Preliminary In Vitro/In Vivo Characterization of OncoFAP-Based Radiopharmaceuticals for Cancer Imaging and Therapy” (Pharmaceuticals, 2022).
